What was measured:
[1] = Cytotoxicity determination in HepG2.2.15 cells (CCK-8); format: cell-based; conditions: human, 6 days treatment, CCK-8, highest concentration 100 uM
Excerpt: (§1) Example 2: Anti-Viral Assay in HepG2.2.15 Cells
(§2) 1.1. Cell Line • HepG2.2.15 (the HepG2.2.15 cell line can be produced by transfection of the HepG2 cell line as described in Sells, Chen, and Acs 1987 (Proc. Natl. Acad. Sci. USA 84:1005-1009), and the HepG2 cell line is available from ATCC® under number HB-8065™). Reagents • DMEM/F12 (INVITROGEN-11330032) • FBS (GIBCO-10099-141) • Dimethyl sulfoxide(DMSO) (SIGMA-D2650) • Penicillin-streptomycin solution (HYCLONE-SV30010) • NEAA (INVITROGEN-1114050) • L-Glutamine (INVITROGEN-25030081) • Geneticin Selective Antibiotic (G418, 500 mg/ml) (INVITROGEN-10131027) • Trypsinase digestion solution (INVITROGEN-25300062) • CCK8 (BIOLOTE-35004) • QIAamp 96 DNA Blood Kit (12) (QIAGEN-51162) • FastStart Universal Probe Mast Mix (ROCHE-04914058001)
(§3) 2.1. HBV Inhibitory Activity and Cytotoxicity Determination
(§4) Seed the cell HepG2.2.15 cells into 96-well plate in 2% FBS culture medium at the density of 40,000 cells/well and 5,000 cells/well for HBV inhibitory activity and cytotoxicity determination, respectively. After seeding, incubate the cell plates at 37° C., 5% CO2 overnight. The next day, medium containing compounds is added to the cell to treat the cells for 6 days with medium refreshed once in the middle of the treatment. 8 dose points with 3 folds dilution of each compound were adopted and the highest concentration of the compounds is 10 uM and 100 uM for HBV inhibitory activity and cytotoxicity determination, respectively.
After 6 days of compounds treatment, add 20 μl CCK-8 reagents to each well of cytotoxicity assay plates, incubate the plate at 37° C., 5% CO2 for 2.5 h and measure the absorbance at 450 nm wavelength, at the same time read the absorbance at 630 nm wavelength as reference.
(§5) EC50 and CC50 values are calculated by the GRAPHPAD PRISM software.

HBV = experiment: Anti-viral assay in HepG2.2.15 cells: HBV inhibitory activity (HBV DNA in culture medium by q-PCR); format: cell-based; conditions: Hepatitis B virus, HepG2.2.15, 144 h, HepG2.2.15 cells, 6 days treatment, HBV DNA in culture medium by q-PCR, highest concentration 10 uM; read-out: EC50
Excerpt: as §1, §2, §3, §4
The HBV DAN change in the cell culture medium induced by the compounds is measured by q-PCR method. Briefly, the HBV DNA in the culture medium is extracted using QIAamp 96 DNA Blood Kit according to the manual and then quantified by q-PCR using the primers and probe in the table below.
as §5

CCOC(=O)C1=C([C@H]2CC[C@H](Cc3nc(C(=O)O)co3)CC2)NC(c2nccs2)=NC1c1ccc(F)c(F)c1Cl (single isomer, unassigned) [Compound I-15-A, (trans)-2-((4-(6-(2-chloro-3,4-difluorophenyl)-5-(ethoxycarbonyl)-2-(thiazol-2-yl)-3,6-dihydropyrimidin-4-yl)cyclohexyl)methyl)oxazole-4-carboxylic Acid]
CC50 at 6 days [1]: 6270 nM | EC50 (HBV): 66 nM

COC(=O)C1=C([C@H]2CC[C@H](c3nc(CC(=O)O)co3)CC2)NC(c2nccs2)=NC1c1ccc(F)c(F)c1Cl (single isomer, unassigned) [Compound I-16-B, (trans)-2-(2-(4-(6-(2-Chloro-3,4-difluorophenyl)-5-(methoxycarbonyl)-2-(thiazol-2-yl)-3,6-dihydropyrimidin-4-yl)cyclohexyl)oxazol-4-yl)acetic Acid]
CC50 at 6 days [1]: 12400 nM | EC50 (HBV): 4.8 nM

COC(=O)C1=C([C@H]2CC[C@H](c3nc(CC(=O)O)co3)CC2)NC(c2nccs2)=NC1c1ccc(F)cc1Cl (single isomer, unassigned) [Compound I-17-A, (trans)-2-(2-(4-(6-(2-Chloro-4-fluorophenyl)-5-(methoxycarbonyl)-2-(thiazol-2-yl)-3,6-dihydropyrimidin-4-yl)cyclohexyl)oxazol-4-yl)acetic Acid]
CC50 at 6 days [1]: 25700 nM | EC50 (HBV): 14 nM

COC(=O)C1=C([C@H]2CC[C@H](c3nc(CC(=O)O)co3)CC2)NC(c2nccs2)=NC1c1ccc(F)cc1Br (single isomer, unassigned) [Compound I-18-A, (trans)-2-(2-(4-(6-(2-Bromo-4-fluorophenyl)-5-(methoxycarbonyl)-2-(thiazol-2-yl)-3,6-dihydropyrimidin-4-yl)cyclohexyl)oxazol-4-yl)acetic Acid]
CC50 at 6 days [1]: 15300 nM | EC50 (HBV): 7 nM

COC(=O)C1=C([C@H]2CC[C@H](c3nc(CC(=O)O)co3)CC2)NC(c2nccs2)=NC1c1cccc(F)c1Br (single isomer, unassigned) [Compound I-19-B]
CC50 at 6 days [1]: 15200 nM | EC50 (HBV): 36 nM

COC(=O)C1=C([C@H]2CC[C@H](c3nc(CC(=O)O)co3)CC2)NC(c2nccs2)=NC1c1cccc(F)c1Cl (single isomer, unassigned) [Compound I-20-B, (trans)-2-(2-(4-(6-(2-Chloro-3-fluorophenyl)-5-(methoxycarbonyl)-2-(thiazol-2-yl)-3,6-dihydropyrimidin-4-yl)cyclohexyl)oxazol-4-yl)acetic Acid]
CC50 at 6 days [1]: 7210 nM | EC50 (HBV): 30 nM

COC(=O)C1=C([C@H]2CC[C@H](c3nc(CC(=O)O)co3)CC2)NC(c2nccs2)=NC1c1cccc(F)c1C (single isomer, unassigned) [Compound I-21-B, (trans)-2-(2-(4-(6-(3-Fluoro-2-methylphenyl)-5-(methoxycarbonyl)-2-(thiazol-2-yl)-3,6-dihydropyrimidin-4-yl)cyclohexyl)oxazol-4-yl)acetic Acid]
CC50 at 6 days [1]: 8040 nM | EC50 (HBV): 57 nM

COC(=O)C1=C([C@H]2CC[C@H](c3nc(CC(=O)O)c(C)o3)CC2)NC(c2nccs2)=NC1c1ccc(F)c(F)c1Cl (single isomer, unassigned) [Compound I-22-B, (trans)-2-(2-(4-(6-(2-Chloro-3,4-difluorophenyl)-5-(methoxycarbonyl)-2-(thiazol-2-yl)-3,6-dihydropyrimidin-4-yl)cyclohexyl)-5-methyloxazol-4-yl)acetic Acid]
CC50 at 6 days [1]: 7680 nM | EC50 (HBV): 15 nM

CCOC(=O)C1=C([C@H]2CC[C@H](c3nc(CC(=O)O)co3)CC2)NC(c2nccs2)=NC1c1ccc(F)c(F)c1Cl (single isomer, unassigned) [Compound I-23-B, (trans)-2-(2-(4-(6-(2-Chloro-3,4-difluorophenyl)-5-(ethoxycarbonyl)-2-(thiazol-2-yl)-3,6-dihydropyrimidin-4-yl)cyclohexyl)oxazol-4-yl)acetic Acid]
CC50 at 6 days [1]: 5480 nM | EC50 (HBV): 13 nM

CCOC(=O)C1=C([C@H]2CC[C@H](c3nc(CCC(=O)O)co3)CC2)NC(c2nccs2)=NC1c1ccc(F)c(F)c1Cl (single isomer, unassigned) [Compound I-24-A, (trans)-3-(2-(4-(6-(2-Chloro-3,4-difluorophenyl)-5-(ethoxycarbonyl)-2-(thiazol-2-yl)-3,6-dihydropyrimidin-4-yl)cyclohexyl)oxazol-4-yl)propanoic Acid]
CC50 at 6 days [1]: 6790 nM | EC50 (HBV): < 4.6 nM

COC(=O)C1=C([C@H]2CC[C@H](c3nc(CC(C)(C)C(=O)O)co3)CC2)NC(c2nccs2)=NC1c1ccc(F)c(F)c1Cl (single isomer, unassigned) [Compound I-25-B, (trans)-3-(2-(4-(6-(2-Chloro-3,4-difluorophenyl)-5-(methoxycarbonyl)-2-(thiazol-2-yl)-3,6-dihydropyrimidin-4-yl)cyclohexyl)oxazol-4-yl)-2,2-dimethylpropanoic acid]
CC50 at 6 days [1]: 7900 nM | EC50 (HBV): 6.1 nM

CCOC(=O)C1=C([C@H]2CC[C@H](c3ncc(C(=O)O)o3)CC2)NC(c2nccs2)=NC1c1ccc(F)c(F)c1Cl (single isomer, unassigned) [Compound I-26-B, (trans)-2-(4-(6-(2-chloro-3,4-difluorophenyl)-5-(ethoxycarbonyl)-2-(thiazol-2-yl)-3,6-dihydropyrimidin-4-yl)cyclohexyl)oxazole-5-carboxylic Acid]
CC50 at 6 days [1]: 15500 nM | EC50 (HBV): 55 nM

CCOC(=O)C1=C([C@H]2CC[C@H](c3nc(C(C)(C)C(=O)O)co3)CC2)NC(c2nccs2)=NC1c1ccc(F)c(F)c1Cl (single isomer, unassigned) [Compound I-27-B, (trans)-2-(2-(4-(6-(2-chloro-3,4-difluorophenyl)-5-(ethoxycarbonyl)-2-(thiazol-2-yl)-3,6-dihydropyrimidin-4-yl)cyclohexyl)oxazol-4-yl)-2-methylpropanoic Acid]
CC50 at 6 days [1]: 5170 nM | EC50 (HBV): 18 nM

CCOC(=O)C1=C([C@H]2CC[C@H](c3cnn(CC(=O)O)c3)CC2)NC(c2nccs2)=NC1c1ccc(F)c(F)c1Cl (single isomer, unassigned) [Compound I-28-B, (trans)-2-(4-(4-(6-(2-chloro-3,4-difluorophenyl)-5-(ethoxycarbonyl)-2-(thiazol-2-yl)-3,6-dihydropyrimidin-4-yl)cyclohexyl)-1H-pyrazol-1-yl)acetic Acid]
CC50 at 6 days [1]: 5280 nM | EC50 (HBV): 33 nM

COC(=O)C1=C([C@H]2CC[C@H](c3cnn(CCC(=O)O)c3)CC2)NC(c2nccs2)=NC1c1ccc(F)cc1Cl (single isomer, unassigned) [Compound I-29-C, (trans)-3-(4-(4-(6-(2-Chloro-4-fluorophenyl)-5-(methoxycarbonyl)-2-(thiazol-2-yl)-3,6-dihydropyrimidin-4-yl)cyclohexyl)-1H-pyrazol-1-yl)propanoic Acid]
CC50 at 6 days [1]: 11200 nM | EC50 (HBV): 10 nM

CCOC(=O)C1=C([C@H]2CC[C@H](c3cnn(C(C)(C)CC(=O)O)c3)CC2)NC(c2nccs2)=NC1c1ccc(F)c(F)c1Cl (single isomer, unassigned) [Compound I-30-D]
CC50 at 6 days [1]: 1160 nM | EC50 (HBV): 26 nM

CCOC(=O)C1=C([C@H]2CC[C@H](c3cnn(CCC(=O)O)c3)CC2)NC(c2nccs2)=NC1c1ccc(F)c(F)c1Cl (single isomer, unassigned) [Compound I-32-B, 3-(4-((trans)-4-(6-(2-Chloro-3,4-difluorophenyl)-5-(ethoxycarbonyl)-2-(thiazol-2-yl)-3,6-dihydropyrimidin-4-yl)cyclohexyl)-1H-pyrazol-1-yl)propanoic Acid]
CC50 at 6 days [1]: 5810 nM | EC50 (HBV): < 4.6 nM

CCOC(=O)C1=C([C@H]2CC[C@H](c3cn(CCC(=O)O)nc3C)CC2)NC(c2nccs2)=NC1c1ccc(F)c(F)c1Cl (single isomer, unassigned) [Compound I-33-C, (trans)-3-(4-(4-(6-(2-Chloro-3,4-difluorophenyl)-5-(ethoxycarbonyl)-2-(thiazol-2-yl)-3,6-dihydropyrimidin-4-yl)cyclohexyl)-3-methyl-1H-pyrazol-1-yl)propanoic Acid]
CC50 at 6 days [1]: 2970 nM | EC50 (HBV): 7.2 nM

— patent US11053235B2, “Substituted 1,4-dihydropyrimidines for the treatment of HBV infection or HBV-induced diseases” (Janssen Sciences Ireland Unlimited Company, priority 2018, dated 2021)
